Data from patent publication US20190151341A1, “APPLICATION OF TENVERMECTIN FOR PREVENTING AND TREATING PARASITE INFECTION” (ZHEJIANG HISUN PHARMACEUTICAL CO., LTD., priority 2016, published 2019).

Tests used:
[1] = test system: swine nematode (nematodes in the digestive tract); assay: Repelling swine nematode in naturally infected pigs (fecal egg count, McMaster's method); assay type: in vivo; conditions: 1% injection 0.2 mg/kg bw s.c.
Description: (§1) Test agents: 1% ivermectin injection, 1% tenvermectin A injection, and 1% tenvermectin B injection as obtained in Example 1.
(§2) Test animals and grouping: pigs cultured in the same farm were selected, and 40 pigs naturally infected with nematodes in the digestive tract were selected for testing through fecal examination. The average weight of the test pigs was 30-50 kg. Forty pigs were randomly divided into 4 groups, 10 for each group. The first group was the ivermectin control group, the second group was the tenvermectin A group, and the third group was the tenvermectin B group. All the medicated groups were injected subcutaneously in the neck according to 0.2 mg/kg·bw. The forth group was a blank group and was not administered.
(§3) 1) The feces of the pigs in each group were collected and examined one by one a day before administration, and worm eggs were counted by the McMaster's method. The number of eggs per gram of feces (EPG) was counted and the condition of Haematopinus on the body surface was observed.
(§4) 2) 1, 2, 3 and 4 weeks after administration, the feces of the pigs in each group were examined by the McMaster's method, and the EPG was counted and the changes of Haematopinus on the body surface were observed.
3) The negative conversion rates and egg reduction rates of the test pigs were calculated by a conventional method to assess the efficacy of repelling swine nematode.

swine Haematopinus = assay: Killing effect on swine Haematopinus on the body surface; assay type: in vivo; conditions: pigs, 1% injection 0.2 mg/kg bw s.c., until the 7th day and in the following 3 weeks
Description: as §1, §2, §3, §4
4) The killing effects of swine Haematopinus of the agents were assessed according to the survival of swine Haematopinus on the 7th day after administration.

[2] = test system: digestive tract nematodes; assay: Repelling nematode in digestive track of sheep (fecal egg count); assay type: in vivo; conditions: for Number of sheep negatively conversed: sheep (20 per group); for Number of sheep negatively conversed / Egg reduction rate (%) / Negative conversion rate (%): 1% injection 0.2 mg/kg bw s.c.; for Number of sheep negatively conversed / Egg reduction rate (%) / Negative conversion rate (%) / EPG after administration: 9th day after administration; for Egg reduction rate (%) / Negative conversion rate (%) / EPG after administration / EPG before administration: sheep; for EPG after administration / EPG before administration: eggs per gram of feces; for EPG after administration: 0.2 mg/kg bw s.c.; for EPG before administration: baseline a day before administration
Description: as §1
Test animals and grouping: sheep grazed under the same condition were selected, and 80 sheep of 0.8-2.0 years old naturally infected with digestive tract nematodes were selected through fecal examination. The average weight of the test sheep was 30 kg. The 80 sheep were randomly divided into 4 groups, 20 heads for each group. The first group was the ivermectin control group, the second group was the tenvermectin A group, and the third group was the tenvermectin B group. All the medicated groups were injected subcutaneously in the neck according to 0.2 mg/kg·bw. The fourth group was a blank group and was not medicated.
1) The feces of the sheep in each group were collected and examined one by one a day before administration, and the worm eggs were counted by the McMaster's method, and the number of eggs per gram of feces (EPG) was counted.
2) On the 9th day after administration, the sheep of each group were subjected to a fecal examination by McMaster's method, and EPG was counted.
3) The egg negative conversion rates and egg reduction rates were calculated according to a conventional method to assess the efficacy.

zebrafish = assay: Toxicity to zebrafish, semi-static method, 96 hours
Method: Test agents: avermectin, milbemycin, ivermectin, tenvermectin A and tenvermectin B were all from Zhejiang Hisun Pharmaceutical Co., Ltd. The samples were formulated into 50 mg/ml mother liquors with DMF.
Test fish and water: zebrafish (Brachydanio rerio) was purchased from Zhejiang Academy of Agricultural Sciences, with the same size, average body length of 2-3 cm and average body weight of 0.3 g. The zebrafish was domesticated for 7 days indoors before the test. […] Feeding was stopped 1 day before the test and the fish were not fed during the test. The test water was tap water with residual chlorine removed by exposure to the sun for more than 24 hours, and the pH thereof was 6.8.
Test methods: semi-static method. Three level differences were provided for each sample: 0.5 ppm, 1.0 ppm and 1.5 ppm, and three parallel groups were provided for each level difference, 10 zebrafish were raised for each group, and blank controls (one group without agents and one group with only solvent) were provided. The corresponding volume of mother liquor was taken according to the concentration as required for each sample, and the volume of each sample was adjusted to 150 μl with DMF, and then each sample was added to the test group (containing 1.6 L of water). The room temperature was controlled at 22±2° C. for 96 hours, and the water was changed every 24 hours and the samples were re-added. The fish mortality rate was recorded for the first 8 hours and at 24, 48, 72 and 96 hours, and the dead fish were removed in time.

Sarcoptes mites = assay: Treatment of Sarcoptes mites of sheep (skin scrapings, live mites); assay type: in vivo; conditions: 1% injection 0.2 mg/kg bw s.c.; for Negative conversion number: sheep (10 per group); for Negative conversion rate (%): sheep
Description: Test agents: 1% ivermectin injection, 1% tenvermectin A injection and 1% tenvermectin B injection as obtained in Example 1.
Test animals and grouping: sheep grazed under the same conditions were selected. Upon parasitological examination, 40 sheep which had been infected with sheep Sarcoptes mites were selected. The 40 sheep were randomly divided into 4 groups, 10 heads for each group. The first group was the ivermectin control group, the second group was the tenvermectin A group, and the third group was the tenvermectin B group. All the medicated groups were injected subcutaneously in the neck according to 0.2 mg/kg·bw. The fourth group was a blank group and was not medicated.
Test methods: the changes of clinical symptoms were observed. The skin of sheep was scratched using a surgical blade with glycerin at the junction of the affected part and the healthy skin of the diseased sheep until the skin slightly bled. The skin scraps were taken then were placed in a dish and brought back to the laboratory. Then the skin scraps were placed on a slide, a drop of aqueous solution of 50% glycerol was added, and a cover slip was covered, and then the skin scraps were checked under a low magnification microscope. It was confirmed to be positive if live Sarcoptes mites were observed. Samples were taken before administration and at 1, 2, 3 and 4 weeks after administration to be examined. The samples were examined under a microscope, based on whether live mites were observed, the samples can be determined to be positive as long as one live mite was observed. Changes of clinical symptoms were observed as references.

Row | Structure (SMILES) | Egg reduction rate (%) ([1]; 1st week after administration) | Negative conversion rate (%) ([1]; 1st week after administration) | Egg reduction rate (%) ([1]; 2nd week after administration) | Negative conversion rate (%) ([1]; 2nd week after administration) | Egg reduction rate (%) ([1]; 3rd week after administration) | Negative conversion rate (%) ([1]; 3rd week after administration) | Egg reduction rate (%) ([1]; 4th week after administration) | Negative conversion rate (%) ([1]; 4th week after administration) | active Haematopinus observed on the body surface (swine Haematopinus) | Number of sheep negatively conversed [2] | Egg reduction rate (%) [2] [%] | Negative conversion rate (%) [2] [%] | EPG after administration [2] | EPG before administration [2] | Survival condition (survival rates/%) (zebrafish; 0.5 ppm, 8 h) [%] | Survival condition (survival rates/%) (zebrafish; 0.5 ppm, 24 h) [%] | Survival condition (survival rates/%) (zebrafish; 0.5 ppm, 48 h) [%] | Survival condition (survival rates/%) (zebrafish; 0.5 ppm, 72 h) [%] | Survival condition (survival rates/%) (zebrafish; 1.0 ppm, 8 h) [%] | Survival condition (survival rates/%) (zebrafish; 1.0 ppm, 24 h) [%] | also measured
1 | COC1CC(OC2C(C)OC(OC3C(C)=CCC4CC(CC5(CCC(C)C(C)O5)O4)OC(=O)C4C=C(C)C(O)C5OCC(=CC=CC3C)C45O)CC2OC)OC(C)C1O (stereo not shown) [Tenvermectin A, tenvermectin A] | 79.6 | 70 | 89.5 | 80 | 98.6 | 90 | 78.8 | 70 | no active Haematopinus was found | 20 | 100 | 100 | 0 | 11600 | 100 | 100 | 100 | 100 | 100 | 100 | Survival condition (survival rates/%) (zebrafish; 0.5 ppm, 96 h): 100%; Survival condition (survival rates/%) (zebrafish; 1.0 ppm, 48 h): 100%; Survival condition (survival rates/%) (zebrafish; 1.0 ppm, 72 h): 100%; Survival condition (survival rates/%) (zebrafish; 1.0 ppm, 96 h): 100%; Survival condition (survival rates/%) (zebrafish; 1.0 ppm, 96 h, listed as tenvermectin A): greater than 50%; Survival condition (survival rates/%) (zebrafish; 1.5 ppm, 8 h): 100%; Survival condition (survival rates/%) (zebrafish; 1.5 ppm, 24 h): 100%; Survival condition (survival rates/%) (zebrafish; 1.5 ppm, 48 h): 100%; Survival condition (survival rates/%) (zebrafish; 1.5 ppm, 72 h): 100%; Survival condition (survival rates/%) (zebrafish; 1.5 ppm, 96 h): 100%; 96-hour LC50 on zebrafish (zebrafish; 96 hours, semi-static): > 1 ppm; Negative conversion number (Sarcoptes mites; 1st week): 8; Negative conversion number (Sarcoptes mites; 2nd week): 9; Negative conversion number (Sarcoptes mites; 3rd week): 10; Negative conversion number (Sarcoptes mites; 4th week): 10; Negative conversion rate (%) (Sarcoptes mites; 1st week): 80%; Negative conversion rate (%) (Sarcoptes mites; 2nd week): 90%; Negative conversion rate (%) (Sarcoptes mites; 3rd week): 100%; Negative conversion rate (%) (Sarcoptes mites; 4th week): 100%
2 | CC[C@H]1O[C@]2(CC[C@@H]1C)C[C@@H]1C[C@@H](C/C=C(\C)[C@@H](O[C@H]3C[C@H](OC)[C@@H](O[C@H]4C[C@H](OC)[C@@H](O)[C@H](C)O4)[C@H](C)O3)[C@@H](C)/C=C/C=C3\CO[C@@H]4[C@H](O)C(C)=C[C@@H](C(=O)O1)[C@]34O)O2 [Tenvermectin B, tenvermectin B] | 85.3 | 80 | 100 | 100 | 100 | 100 | 95.8 | 90 | no active Haematopinus was found | 20 | 100 | 100 | 0 | 12200 | 100 | 70 | 50 | 0 | 53 | 0 | Survival condition (survival rates/%) (zebrafish; 1.5 ppm, 8 h): 10%; Survival condition (survival rates/%) (zebrafish; 1.5 ppm, 24 h): 0%; toxicity to zebrafish, in words (zebrafish; in vivo): did not reach the level of middle toxic; Negative conversion number (Sarcoptes mites; 1st week): 9; Negative conversion number (Sarcoptes mites; 2nd week): 10; Negative conversion number (Sarcoptes mites; 3rd week): 10; Negative conversion number (Sarcoptes mites; 4th week): 10; Negative conversion rate (%) (Sarcoptes mites; 1st week): 90%; Negative conversion rate (%) (Sarcoptes mites; 2nd week): 100%; Negative conversion rate (%) (Sarcoptes mites; 3rd week): 100%; Negative conversion rate (%) (Sarcoptes mites; 4th week): 100%
